Laboratory results reported in patent US4886884A, “Derivatives from cervinomycin based antibiotics” (The Kitazato Institute, priority 1986, dated 1989).
Values after ≈ are worked out from the molar mass of the structure shown. Read-outs that look alike come from different tables or passages of the source.

Experiments:
[1] = tested on: Salmonella typhimurium KB-20; experiment: Antibacterial activity, minimum inhibitory concentration (MIC); type: cell-based; settings: Salmonella enterica
[2] = tested on: Mycoplasma pneumoniae KB-173; experiment: as above; type: cell-based
[3] = tested on: Acholeplasma laidlawii KB-174 (PG-8); experiment: as above; type: cell-based
[4] = tested on: Staphylococcus aureus KB-210 (ATCC 6538P); experiment: as above; type: cell-based; settings: ATCC6538P
[5] = tested on: Bacillus cereus KB-143 (IFO 3001); experiment: as above; type: cell-based
[6] = tested on: Clostridium perfringens (ATCC 13124); experiment: microbe, parasite or virus in culture; type: cell-based; settings: ATCC13124
[7] = tested on: Bacillus subtilis KB-211 (ATCC 6633); experiment: Antibacterial activity, minimum inhibitory concentration (MIC); type: cell-based
[8] = tested on: Pseudomonas aeruginosa KB-115 (IFO 3080); experiment: as above; type: cell-based
[9] = tested on: Peptococcus variabilis KB-235 (ATCC 14955); experiment: as above; type: cell-based
[10] = tested on: Escherichia coli KB-176 (NIHJ JC-2); experiment: as above; type: cell-based
[11] = tested on: Micrococcus luteus KB-212 (ATCC 9341); experiment: as above; type: cell-based
[12] = tested on: Klebsiella pneumoniae KB-214 (ATCC 10031); experiment: as above; type: cell-based
[13] = tested on: Bacteroides fragilis KB-169 (ATCC 23749); experiment: as above; type: cell-based
[14] = tested on: Mycoplasma gallisepticum KB-171 (S-6); experiment: as above; type: cell-based; settings: Mycoplasmoides gallisepticum
[15] = Acute toxicity test by oral administration; settings: mouse, in vivo
[16] = tested on: Clostridium difficile (ATCC 9689); experiment: Antibacterial activity, minimum inhibitory concentration (MIC); type: cell-based; settings: Clostridioides difficile, ATCC9689
[17] = tested on: Bifidobacterium bifidum (ATCC 11146); experiment: as above; type: cell-based
[18] = Solubility in different solvents; type: physicochemical; settings: organic solvent or mixture
Text: Compounds (1) of the present invention had the following solubilities in different solvents.

[19] = tested on: Proteus vulgaris KB-127 (IFO 3167); experiment: Antibacterial activity, minimum inhibitory concentration (MIC); type: cell-based
[20] = in vivo; settings: mouse, po
[21] = tested on: Gram-positive and Gram-negative bacteria, mycoplasmas; experiment: Antimicrobial activity (overall, in words); type: cell-based
[22] = acetic acid, read-out: Solubility in Acetic acid
[23] = dmso, read-out: Solubility in DMSO
[24] = methanol, read-out: Solubility in Methanol
[25] = inoculum 1 × 10^6 cells/ml, 37° C., read-out: MIC
[26] = IFO3001, inoculum 1 × 10^6 cells/ml, 37° C., read-out: MIC
[27] = ATCC6633, inoculum 1 × 10^6 cells/ml, 37° C., read-out: MIC
[28] = IFO3080, inoculum 1 × 10^6 cells/ml, 37° C., read-out: MIC
[29] = NIHJJC2, inoculum 1 × 10^6 cells/ml, 37° C., read-out: MIC
[30] = ATCC9341, inoculum 1 × 10^6 cells/ml, 37° C., read-out: MIC
[31] = ATCC10031, inoculum 1 × 10^6 cells/ml, 37° C., read-out: MIC
[32] = ATCC23749, inoculum 1 × 10^6 cells/ml, 37° C., read-out: MIC
[33] = ATCC11146, inoculum 1 × 10^6 cells/ml, 37° C., read-out: MIC
[34] = IFO3167, inoculum 1 × 10^6 cells/ml, 37° C., read-out: MIC

With `COc1cc2oc3c(OC(C)=O)c4ccc5cc6c(c(OC(C)=O)c5c4c(OC(C)=O)c3c(=O)c2cc1OC)C(=O)N1CCOC1(C)C6` (centres unmarked) [Triacetyl Cervinomycin A1, triacetyl Cervinomycin A1] the MIC [1] was over 10 µg/mL, the MIC ([2]; KB173) was 0.156 µg/mL (≈ 0.238 µM) and the MIC [3] was 0.312 µg/mL (≈ 0.476 µM). The MIC [4] was 0.16 µg/mL (≈ 0.244 µM), the MIC ([5]; IFO3001) was 0.31 µg/mL (≈ 0.473 µM) and the MIC [6] was 0.02 µg/mL (≈ 0.0305 µM). It also gave an MIC ([7]; ATCC6633) of over 0.02 µg/mL, an MIC ([8]; IFO3080) of over 10 µg/mL and an MIC [9] of 0.02 µg/mL (≈ 0.0305 µM). For the same molecule, the MIC ([10]; NIHJJC2) was over 10 µg/mL, the MIC ([11]; ATCC9341) was 0.08 µg/mL (≈ 0.122 µM) and the MIC ([12]; ATCC10031) was over 10 µg/mL. It also gave an MIC ([13]; ATCC23749) of 0.1 µg/mL (≈ 0.153 µM), an MIC [14] of 0.156 µg/mL (≈ 0.238 µM) and an LD50 [15] of 1620 mg/kg. For the same molecule, the MIC [16] was 0.05 µg/mL (≈ 0.0763 µM), the MIC ([17]; ATCC11146) was 0.2 µg/mL (≈ 0.305 µM) and the solubility [18, 22] was over 25000 µg/mL. It also gave a solubility [18, 23] of over 50000 µg/mL, a solubility [18, 24] of 1400 µg/mL (≈ 2140 µM) and an MIC ([19]; IFO3167) of over 10 µg/mL.
`COc1cc2oc3c(O)c4ccc5cc6c(c(O)c5c4c(O)c3c(=O)c2cc1OC)C(=O)N1CCOC1(C)C6` (centres unmarked) [Cervinomycin A1, reference compound] showed an MIC [1] of over 10 µg/mL, an MIC ([2]; KB173) of 12.5 µg/mL (≈ 23.6 µM) and an MIC [3] of 12.5 µg/mL (≈ 23.6 µM). The MIC [4] was 5 µg/mL (≈ 9.44 µM), the MIC ([5]; IFO3001) was 10 µg/mL (≈ 18.9 µM) and the MIC [6] was 1.25 µg/mL (≈ 2.36 µM). It also gave an MIC ([7]; ATCC6633) of 2.5 µg/mL (≈ 4.72 µM), an MIC ([8]; IFO3080) of over 10 µg/mL and an MIC [9] of 0.62 µg/mL (≈ 1.17 µM). The MIC ([10]; NIHJJC2) was over 10 µg/mL, the MIC ([11]; ATCC9341) was 5 µg/mL (≈ 9.44 µM) and the MIC ([12]; ATCC10031) was over 10 µg/mL. The MIC ([13]; ATCC23749) was 1.25 µg/mL (≈ 2.36 µM), the MIC [14] was 12.5 µg/mL (≈ 23.6 µM) and the LD50 [15] was 320 mg/kg. The solubility [18, 22] was 23 µg/mL (≈ 43.4 µM), the solubility [18, 23] was 78 µg/mL (≈ 147 µM) and the solubility [18, 24] was 0.3 µg/mL (≈ 0.567 µM). For the same molecule, the MIC ([19]; IFO3167) was over 10 µg/mL.
`COc1cc2oc3c(c(=O)c2cc1OC)C(=O)c1c(ccc2cc4c(c(OC(C)=O)c12)C(=O)N1CCOC1(C)C4)C3=O` (centres unmarked) [Monoacetyl Cervinomycin A2, monoacetyl Cervinomycin A2] gave an MIC [1, 25] of over 10 µg/mL, an MIC ([2]; KB173, inoculum 1 × 10^6 cells/ml, 37° C., read-out: MIC) of 0.6 µg/mL (≈ 1.05 µM) and an MIC [3, 25] of 1.25 µg/mL (≈ 2.19 µM). The MIC [4, 25] was 0.31 µg/mL (≈ 0.544 µM), the MIC [5, 26] was 0.16 µg/mL (≈ 0.281 µM) and the MIC [6] was 0.02 µg/mL (≈ 0.0351 µM). For the same molecule, the MIC [7, 27] was 0.08 µg/mL (≈ 0.14 µM), the MIC [8, 28] was over 10 µg/mL and the MIC [10, 29] was over 10 µg/mL. It also gave an MIC [11, 30] of 0.4 µg/mL (≈ 0.702 µM), an MIC [12, 31] of over 10 µg/mL and an LD50 [20] of 1800 mg/kg. For the same molecule, the MIC [13, 32] was 0.1 µg/mL (≈ 0.176 µM), the MIC [14, 25] was 1.25 µg/mL (≈ 2.19 µM) and the MIC [16, 25] was 0.05 µg/mL (≈ 0.0878 µM). It also gave an MIC [17, 33] of 0.2 µg/mL (≈ 0.351 µM), a solubility [18, 22] of 3000 µg/mL (≈ 5270 µM) and a solubility [18, 23] of 5000 µg/mL (≈ 8780 µM). It also gave a solubility [18, 24] of 300 µg/mL (≈ 527 µM) and an MIC [19, 34] of over 10 µg/mL.
With `CCC[C@@H]1C[C@@H](C(=O)N[C@@H]([C@H]2O[C@H](SC)[C@H](O)[C@@H](O)[C@H]2O)[C@H](C)Cl)N(C)C1` [Clindamycin, reference compound] the MIC [1] was over 10 µg/mL, the MIC ([2]; KB173) was 0.62 µg/mL (≈ 1.46 µM) and the MIC [3] was 0.62 µg/mL (≈ 1.46 µM). The MIC [4, 25] was 0.16 µg/mL (≈ 0.376 µM), the MIC [5, 26] was 0.63 µg/mL (≈ 1.48 µM) and the MIC [6] was 0.4 µg/mL (≈ 0.941 µM). It also gave an MIC [7, 27] of 2.5 µg/mL (≈ 5.88 µM), an MIC [8, 28] of over 10 µg/mL and an MIC [9, 25] of 0.16 µg/mL (≈ 0.376 µM). The MIC [10, 29] was over 10 µg/mL, the MIC [11, 30] was 0.04 µg/mL (≈ 0.0941 µM) and the MIC [12, 31] was over 10 µg/mL. For the same molecule, the MIC [13, 32] was 0.08 µg/mL (≈ 0.188 µM), the MIC [14] was 0.62 µg/mL (≈ 1.46 µM) and the MIC [16, 25] was 6.3 µg/mL (≈ 14.8 µM). The MIC [17, 33] was 0.02 µg/mL (≈ 0.0471 µM) and the MIC [19, 34] was over 10 µg/mL.
For `COc1cc2oc3c(c(=O)c2cc1OC)C(=O)c1c(ccc2c(C)c4c(c(O)c12)C(=O)N1CCOC1(C)C4)C3=O` (centres unmarked) [C-methyl Cervinomycin A2], the antimicrobial activity [21] was “substantially equal to those of Cervinomycin A1 and A2”.
With `COc1cc2oc3c(c(=O)c2cc1OC)C(=O)c1c(ccc2cc4c(c(OC)c12)C(=O)N1CCOC1(C)C4)C3=O` (centres unmarked) [O-methyl Cervinomycin A2] the antimicrobial activity [21] was “substantially equal to those of Cervinomycin A1 and A2”.
With `COc1cc2oc3c(c(=O)c2cc1OC)C(=O)c1c(ccc2c(C)c4c(c(OC)c12)C(=O)N1CCOC1(C)C4)C3=O` (centres unmarked) [C,O-dimethyl Cervinomycin A2] the antimicrobial activity [21] was “substantially equal to those of Cervinomycin A1 and A2”.
